From ChEMBL document CHEMBL1125330, “N-substituted pyrazino[2,3-c][1,2,6]thiadiazine 2,2-dioxides. A new class of diuretics” (J Med Chem, 1992)

Experiments:
Rattus norvegicus [1] = species on record: Rattus norvegicus; assay: Mean sodium excretion in rats (Control/Drug treatment value); value 0.5/1.79; assay type: ADME, organism-based; settings: in vivo
Rattus norvegicus [2] = species on record: Rattus norvegicus; assay: Mean urinary output in rats (Control/Drug treatment value); value 27.7/36.4; assay type: ADME, organism-based, Urine; settings: in vivo

V (Rattus norvegicus [2]): 1.3
SMILES: CCN1c2nc(C)c(C)nc2C(N)=NS1(=O)=O
Na (Rattus norvegicus [1]): 3.6 m equiv 6hr-1 kg-1 (body weight)-1
